Assay results taken from patent publication US4272437A, “Antibacterial agents, and 4-thio azetidinone intermediates” (priority 1979, dated 1981).
In brackets after ≈: the same amount, converted by molar mass. Like-named read-outs stand apart in the source and are kept apart here.

Experiments:
Str. faecalis A-20688 = experiment: MIC, tube dilution, Streptococcus faecalis A20688; assay type: cell-based; conditions: Enterococcus faecalis, A20688, Str. faecalis A20688; overnight 37° C.; read-out: Minimum Inhibitory Concentration (M.I.C.)
Excerpt: (§1) Representative compounds of the present invention were subjected to in vitro antibiotic screening against a variety of microorganisms.

[1] = system: Staph. aureus (Meth-Res) A-15097; experiment: MIC, tube dilution, Staphylococcus aureus A15097 (Meth-Res); assay type: cell-based; conditions: Staphylococcus aureus, Staph. aureus A15097 (Meth-Res); overnight 37° C.; read-out: Minimum Inhibitory Concentration (M.I.C.)
Excerpt: as §1

Pr. mirabilis A-9900 = experiment: MIC, tube dilution, Proteus mirabilis A9900; assay type: cell-based; conditions: overnight 37° C.; for MIC: Proteus mirabilis, A9900, Proteus mirabilis A9900, read-out: Minimum Inhibitory Concentration (M.I.C.)
Excerpt: as §1

Ent. cloacae A-9656 = experiment: MIC, tube dilution, Enterobacter cloacae A9656; assay type: cell-based; conditions: Enterobacter cloacae, A9656, Enterobacter cloacae A9656; overnight 37° C.; read-out: Minimum Inhibitory Concentration (M.I.C.)
Excerpt: as §1

Str. pneumoniae A-9585 = experiment: MIC, tube dilution, Streptococcus pneumoniae A9585; assay type: cell-based; conditions: Streptococcus pneumoniae, A9585, Str. pneumoniae A9585; overnight 37° C., Nutrient Broth; read-out: Minimum Inhibitory Concentration (M.I.C.)
Excerpt: as §1

[2] = system: Klebsiella species A20468; experiment: MIC, tube dilution, Klebsiella species A20468; assay type: cell-based; conditions: Klebsiella species (K. pneumoniae) A20468; overnight 37° C.; read-out: Minimum Inhibitory Concentration (M.I.C.)
Excerpt: as §1

E. coli A-20341-1 = experiment: MIC, tube dilution, Escherichia coli A20341-1; assay type: cell-based; conditions: Escherichia coli, A203411, E. coli A20341-1; overnight 37° C.; read-out: Minimum Inhibitory Concentration (M.I.C.)
Excerpt: as §1

Ps. aeruginosa A-21213 = experiment: MIC, tube dilution, Pseudomonas aeruginosa A21213; assay type: cell-based; conditions: Pseudomonas aeruginosa A21213; overnight 37° C.; read-out: Minimum Inhibitory Concentration (M.I.C.)
Excerpt: as §1

E. coli A-15119 = experiment: MIC, tube dilution, Escherichia coli A15119; assay type: cell-based; conditions: Escherichia coli, A15119, E. coli A15119; overnight 37° C.; read-out: Minimum Inhibitory Concentration (M.I.C.)
Excerpt: as §1

Str. pyogenes A-9604 = experiment: MIC, tube dilution, Streptococcus pyogenes A9604; assay type: cell-based; conditions: Streptococcus pyogenes, A9604, Str. pyogenes A9604; overnight 37° C., Nutrient Broth; read-out: Minimum Inhibitory Concentration (M.I.C.)
Excerpt: as §1

[3] = system: Staph. aureus (Pen-Res) A-9606; experiment: MIC, tube dilution, Staphylococcus aureus A9606 (Pen-Res); assay type: cell-based; conditions: Staphylococcus aureus, Staph. aureus A9606 (Pen-Res); overnight 37° C.; read-out: Minimum Inhibitory Concentration (M.I.C.)
Excerpt: as §1

Proteus vulgaris A21559 = experiment: MIC, tube dilution, Proteus vulgaris A21559; assay type: cell-based; conditions: Proteus vulgaris, A21559, Proteus vulgaris A21559; overnight 37° C.; read-out: Minimum Inhibitory Concentration (M.I.C.)
Excerpt: as §1

S. aureus A9537 = experiment: In vivo protection of mice, lethal infection with S. aureus A9537; conditions: Staphylococcus aureus, A9537, im, IM, 2 treatments, read-out: PD50
Description: Representative compounds of the present invention were also tested in vivo in mice and their PD50 (dose of compound in mg/kg required to protect 50% of the treated mice against an otherwise lethal infection of a micro-organism) values determined with respect to the test organisms shown below.

Ps. aeruginosa A-9843A = experiment: MIC, tube dilution, Pseudomonas aeruginosa A9843A; assay type: cell-based; conditions: Pseudomonas aeruginosa, A9843A, read-out: Minimum Inhibitory Concentration (M.I.C.), Pseudomonas aeruginosa A9843A; overnight 37° C.
Excerpt: as §1

Staph. aureus A-9537 = experiment: MIC, tube dilution, Staphylococcus aureus A9537; assay type: cell-based; conditions: Staphylococcus aureus, A9537, Staph. aureus A9537; overnight 37° C., Nutrient Broth; read-out: Minimum Inhibitory Concentration (M.I.C.)
Excerpt: as §1

Pr. morganii A-15153 = experiment: MIC, tube dilution, Proteus morganii A15153; assay type: cell-based; conditions: overnight 37° C.; for MIC: Morganella morganii, A15153, Proteus morganii A15153, read-out: Minimum Inhibitory Concentration (M.I.C.)
Excerpt: as §1

Ser. marcescens A-20019 = experiment: MIC, tube dilution, Serratia marcescens A20019; assay type: cell-based; conditions: Serratia marcescens, A20019, Serratia marcescens A20019; overnight 37° C.; read-out: Minimum Inhibitory Concentration (M.I.C.)
Excerpt: as §1

[4] = system: Staph. aureus A-9537 and 50% serum; experiment: MIC, tube dilution, Staph. aureus A9537 + 50% serum; assay type: cell-based, Staphylococcus aureus; conditions: Staphylococcus aureus, overnight 37° C., read-out: Minimum Inhibitory Concentration (M.I.C.)
Excerpt: as §1

Proteus rettgeri A21203 = experiment: MIC, tube dilution, Proteus rettgeri A21203; assay type: cell-based; conditions: Providencia rettgeri, A21203, Proteus rettgeri A21203; overnight 37° C.; read-out: Minimum Inhibitory Concentration (M.I.C.)
Excerpt: as §1

Ent. cloacae A-9659 = experiment: MIC, tube dilution, Enterobacter cloacae A9659; assay type: cell-based; conditions: Enterobacter cloacae, A9659, Enterobacter cloacae A9659; overnight 37° C.; read-out: Minimum Inhibitory Concentration (M.I.C.)
Excerpt: as §1

K. pneumoniae A-15130 = experiment: MIC, tube dilution, Klebsiella pneumoniae A15130; assay type: cell-based; conditions: Klebsiella pneumoniae, A15130, K. pneumoniae A15130; overnight 37° C.; read-out: Minimum Inhibitory Concentration (M.I.C.)
Excerpt: as §1

Structure (SMILES) | MIC (Str. faecalis A-20688) [µg/mL] | MIC [1] [µg/mL] | MIC (Pr. mirabilis A-9900) [µg/mL] | MIC (Ent. cloacae A-9656) [µg/mL] | MIC (Str. pneumoniae A-9585) [µg/mL] | MIC [2] [µg/mL] | MIC (E. coli A-20341-1) [µg/mL] | MIC (E. coli A-15119) [µg/mL] | MIC (Str. pyogenes A-9604) [µg/mL] | MIC [3] [µg/mL] | MIC (Proteus vulgaris A21559) [µg/mL] | MIC (Ps. aeruginosa A-9843A) [µg/mL] | MIC (Staph. aureus A-9537) [µg/mL] | MIC (Pr. morganii A-15153) [µg/mL] | MIC (Ser. marcescens A-20019) [µg/mL] | MIC [4] [µg/mL] | MIC (Proteus rettgeri A21203) [µg/mL] | MIC (Ent. cloacae A-9659) [µg/mL] | MIC (K. pneumoniae A-15130) [µg/mL] | also measured
CC1=C(C(=O)O)N2C(=O)[C@H]([C@@H](C)O)[C@H]2S1 (relative stereo) [Example 60, (1'R,5R,6S and 1'S,5S,6R) 6-(1'-Hydroxy-1'-ethyl)-2-methylpenem-3-carboxylic Acid (isomer B)] | 63 (≈ 275 µM) | 8 (≈ 34.9 µM) | 32 (≈ 140 µM) | 16 (≈ 69.8 µM) | 0.25 (≈ 1.09 µM) | 16 (≈ 69.8 µM) | 16 (≈ 69.8 µM) | 16 (≈ 69.8 µM) | 1 (≈ 4.36 µM) | 4 (≈ 17.4 µM) | 16 (≈ 69.8 µM) | > 125 | 2 (≈ 8.72 µM) | 32 (≈ 140 µM) | 16 (≈ 69.8 µM) | 8 | 16 (≈ 69.8 µM) | 32 (≈ 140 µM) | 16 (≈ 69.8 µM) | Minimum Inhibitory Concentration (M.I.C.) (Pr. mirabilis A-9900; Proteus mirabilis A9900): 16 µg/mL; MIC (Ps. aeruginosa A-21213): > 125 µg/mL; ED50 (S. aureus A9537; 6.6 × 10^5 organisms): 7.7 mg/kg; Minimum Inhibitory Concentration (M.I.C.) (Pr. morganii A-15153; Proteus morganii A15153): 16 µg/mL
C[C@@H](O)[C@H]1C(=O)N2C(C(=O)O)=C(CN)S[C@H]12 (relative stereo) [Example 62, (1'R,5R,6S and 1'S,5S,6R) 2-Aminomethyl-6-(1'-hydroxy-1'-ethyl)-penem-3-carboxylic Acid (isomer B)] | 32 (≈ 131 µM) | 0.5 (≈ 2.05 µM) | 2 (≈ 8.19 µM) | 1 (≈ 4.09 µM) | 0.03 (≈ 0.123 µM) | 32 (≈ 131 µM) | 8 (≈ 32.8 µM) | 8 (≈ 32.8 µM) | 0.5 (≈ 2.05 µM) | 0.25 (≈ 1.02 µM) | 2 (≈ 8.19 µM) | 2 (≈ 8.19 µM) | 0.03 (≈ 0.123 µM) | 2 (≈ 8.19 µM) | 16 (≈ 65.5 µM) | 0.25 | 2 (≈ 8.19 µM) | 32 (≈ 131 µM) | 16 (≈ 65.5 µM) | ED50 (S. aureus A9537; 8.6 × 10^5 organisms): 1 mg/kg
C[C@@H](O)[C@H]1C(=O)N2C(C(=O)O)=C(CCCCN)S[C@H]12 (relative stereo) [Example 64, (1'R,5R,6S and 1'S,5S,6R)-2-(4-Aminobutyl)-6-(1'-hydroxy-ethyl)-penem-3-carboxylic Acid (isomer B)] | 4 (≈ 14 µM) | 0.25 (≈ 0.873 µM) | 4 (≈ 14 µM) | 16 (≈ 55.9 µM) | 0.016 (≈ 0.0559 µM) | 4 (≈ 14 µM) | 2 (≈ 6.98 µM) | 2 (≈ 6.98 µM) | 0.03 (≈ 0.105 µM) | 0.13 (≈ 0.454 µM) | 2 (≈ 6.98 µM) | 16 (≈ 55.9 µM) | 0.06 (≈ 0.21 µM) | 4 (≈ 14 µM) | 4 (≈ 14 µM) | 0.13 | 4 (≈ 14 µM) | 4 (≈ 14 µM) | 4 (≈ 14 µM) | ED50 (S. aureus A9537; 8 × 10^5 organisms): 0.04 mg/kg
